Two molecules from US9012446B2, “Amino-oxazines and amino-dihydrothiazine compounds as beta-secretase modulators and methods of use” (Amgen Inc., priority 2010, dated 2015) can be followed below.

The subject of assay [1] is Aβ40. Put plainly: In vitro BACE cell-based assay (Aβ40 sandwich ELISA, cells stably expressing APP). To be noted: Homo sapiens, HEK293, average IC50; read-out: HEK cell assay. The essentials: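 Read-out is Aβ40 in cell supernatants, quantified by sandwich ELISA (capture 3 h, detection 2 h, both 4° C) with Delfia time-resolved fluorescence. Cells stably expressing APP were dosed across 10 concentrations from 100 μM or 10 μM top, 0.1% DMSO final; IC50 fitted from percent of control.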

In assay [2] the target is BACE (Homo sapiens, UniProt P56817). Put plainly: In vitro enzymatic BACE FRET assay. To be noted: average IC50, enzyme assay; read-out: BACE 1 FRET assay. It counts as biochemical. The essentials:
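Fluorescence […] after Tris quench reports cleavage of a 50 nM quenched peptide substrate over 1 h. Beforehand, 0.2 nM enzyme sits 1 h with inhibitor dilutions. Buffer: 0.05 M acetate pH 4.2, 100 uM genapol, 10% DMSO final.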

The subject of assay [3] is Abeta 40. Put plainly: In vivo inhibition of beta-secretase: Abeta 40 reduction in CSF and brain of the rat. As to conditions: 10 mpk, after 4 hrs. Summed up:
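Male Sprague Dawley rats (200 g) were given test compound by oral gavage in 2% HPMC, 1% Tween80, pH 2.2, while a vehicle-only group served as control. After sacrifice, brains were homogenized in 0.2% DEA/50 mM NaCl or 0.5% TritonX-100 in Tris-buffered saline and centrifuged at 355,000 g, 4° C. for 30 minutes. Abeta40 in CSF and brain supernatants was quantified by ECL sandwich ELISA (biotinylated-4G8 capture, Fab40 detection) as percent reduction versus vehicle.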

Where [4] appears, read: Abeta 40, rat CSF, read-out: % reduction of rat CSF levels at 10 pmk.
Setting [5] is: Abeta 40, rat brain, read-out: % reduction of rat brain levels at 10 mpk.

Read-outs that look alike come from different tables or passages of the source.

Chain of BACE (P56817 46-501, species assumed): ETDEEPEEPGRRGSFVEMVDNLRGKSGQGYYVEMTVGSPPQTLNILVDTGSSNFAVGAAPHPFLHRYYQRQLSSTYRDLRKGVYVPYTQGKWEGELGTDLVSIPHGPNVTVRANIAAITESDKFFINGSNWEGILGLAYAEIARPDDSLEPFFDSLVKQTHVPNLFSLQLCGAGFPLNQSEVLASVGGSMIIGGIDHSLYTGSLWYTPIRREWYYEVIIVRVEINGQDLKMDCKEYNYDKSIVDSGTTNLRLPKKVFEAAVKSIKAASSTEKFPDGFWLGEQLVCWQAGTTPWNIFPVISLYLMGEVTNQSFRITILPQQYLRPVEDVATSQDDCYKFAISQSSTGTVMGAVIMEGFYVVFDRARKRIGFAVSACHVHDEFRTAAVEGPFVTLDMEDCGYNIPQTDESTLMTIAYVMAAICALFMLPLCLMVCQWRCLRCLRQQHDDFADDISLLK

As to `CC(C)(C)COc1cc2c(c(F)n1)Oc1ccc(-c3cccnc3F)cc1[C@@]21COCC(N)=N1` [Example 250, (5S)-3-(2,2-dimethylpropoxy)-1-fluoro-7-(2-fluoro-3-pyridinyl)-6′H-Spiro[chromeno[2,3-c]pyridine-5,3′-[1,4]oxazin]-5′-amine], the results for the IC50 in assay [1] and in assay [2] were 2.8 nM and 0.6 nM, respectively. In addition, the inhibition in vivo at 10 mg/kg in assay [3] (setting [4]) and in assay [3] (setting [5]) was 72% throughout.

On to `CC(C)(C)C#Cc1cnc2c(c1)[C@]1(CCOC(N)=N1)c1cc(-c3cccnc3F)ccc1O2` [Example 270, (S)-3-(3,3-dimethylbut-1-ynyl)-7-(2-fluoropyridin-3-yl)-5′,6′-dihydrospiro[chromeno[2,3-b]pyridine-5,4′-[1,3]oxazin]-2′-amine], for which the values for the IC50 in assay [1] and in assay [2] were 4.9 nM and 3.1 nM, respectively. Further, the inhibition in vivo at 10 mg/kg amounted to 70% in assay [3] (setting [4]) and 52% in assay [3] (setting [5]).
